Source: the NIST ThermoML archive (doi:10.1021/je300152t)
Numbers after ± are expanded uncertainties.

Key:
[1] = Molar enthalpy of transition or fusion; settings: Crystal; DSC
[2] = Crystal; DTA

SMILES	Molar enthalpy of transition or fusion [1]	Normal melting temperature [2]
CC(=O)Nc1ccccc1 [N-phenylethanamide]	22.1 ± 0.5 kJ/mol	113.8 ± 0.4 °C
CC(=O)Nc1ccc(C)cc1 [1-acetamido-4-methylbenzene]	29.4 ± 0.7 kJ/mol	148.2 ± 0.7 °C
O=C(Nc1ccccc1)c1ccccc1 [N-phenylbenzamide]	31.2 ± 1.5 kJ/mol	162 ± 1 °C
CCOc1cccc(NC(C)=O)c1 [N-(3-ethoxyphenyl)acetamide]	28.9 ± 1 kJ/mol	95 ± 0.9 °C
COc1ccc(NC(C)=O)cc1 [N-(4-methoxyphenyl)ethanamide]	25.4 ± 0.8 kJ/mol	125.1 ± 2.4 °C
CCOc1ccc(NC(C)=O)cc1 [N-(4-ethoxyphenyl)ethanamide]	32 ± 0.7 kJ/mol	134 ± 1 °C
